According to US9932339B2, “Helquats with heteroaromatic substituents, preparation thereof, and use thereof as G-quadruplex stabilizers” (USTAV ORGANICKE CHEMIE A BIOCHEMIE AV CR, V.V.I., priority 2014, dated 2018):
Where two headings read alike, the source gives them in different places.

Tests used:
CCRF-CEM = assay: XTT cytotoxicity/proliferation assay, CCRF-CEM; type: cell-based
Experimental: To assess the antiproliferative effects of the tested substances in vitro, tumor cell line CCRF-CEM derived from acute lymphoblastic leukemia and normal (healthy) HUVEC endothelial cells from umbilical vein were used. Both of these cell lines were cultured under optimal conditions for their growth in the appropriate medium in plastic bottles or plastic Petri dishes of various sizes (TPP, BD Biosciences) at 37° C., 5% CO2 and 95% humidity. HUVEC cells were purchased from BD Biosciences. CCRF-CEM cell line was obtained from ATCC/LGC Standards (American Type Cell Collection).
Suspension cell line CCRF-CEM is a continuous in vitro culture of acute lymphoblastic leukemia. Cell line CCRF-CEM was grown in RPMI 1640 medium (Sigma-Aldrich, cat. No. R8758) supplemented with 2 mmol·l^−1 glutamine (Invitrogen, cat. No. 35050-038), 10% fetal bovine serum (FBS; Sigma-Aldrich, cat. No. F9665), 100 IU/ml penicillin, 100 μg/ml streptomycin (Sigma-Aldrich, cat. No. P0781). Passaging was carried out 2-3 times a week. Population doubling time of CCRF-CEM cells under the used culture conditions is 20 hours.
For testing of the sensitivity of cell lines to studied helquats XTT cytotoxicity/proliferation assay for determination of cell viability was used. This method is based on the ability of metabolically active cells to reduce the yellow tetrazolium salt XTT to orange formazan. The rate of conversion is measured as the increase in absorbance at 492 nm and is proportional to the enzymatic activity of mitochondrial dehydrogenases and thus the number of metabolically active (viable) cells. The output is the IC50 value corresponding to the concentration of the test substance that causes a decrease in the number of viable cells by half (i.e. 50% slowdown of cell division) relative to the control, untreated population. Thus it reflects the effectiveness of the test substance towards the tested cell line.
Cells in exponential growth phase were plated into 96-well microtiter plate at a concentration of 3000 cells per well. Each well contained 90 μl of cell suspension. The following day, 10 μl of 10× concentrated test substances was added. Effect of helquats has been studied in the concentration range 1-100 μmol·l^−1 (or 1, 2.5, 5, 7.5, 10; 15; 25; 50 and 100 μmol·l^−1). In addition to the part of the plate containing the mentioned dilutions of test compounds there were always two control columns present, first column with medium alone (i.e. blank) and the second column with the cells in medium without test compounds (control). Into the blank and control wells the same volume of solvent (water) as the volume of the substances was added. After 72 hours of treatment with substances the measurement of viability was performed according to the manufacturer instructions. Briefly, into each well of a 96-well microtiter plate 50 μl of the prepared working solution of XTT (detection reagent) was added and then the microtiter plate was returned to the CO2 incubator. After 2 hours, the absorbance of each well at 492 nm (reference wavelength 690 nm) was measured using a multifunctional microplate reader (Tecan Genios, Austria).
The results of determination of the viability of cancer and normal cells after treatment with different concentrations of test substances are summarized in Table 9. […] Each concentration of a helquat was tested in triplicates within one IC50 value determination. Each of these IC50 value determinations was repeated in at least three independent experiments. Values above 100 μmol·l^−1 were obtained by extrapolation of data measured in the concentration range 0-100 μmol·l^−1 of helquats.

HUVEC = assay: XTT cytotoxicity/proliferation assay, HUVEC; type: cell-based, human
Experimental: To assess the antiproliferative effects of the tested substances in vitro, tumor cell line CCRF-CEM derived from acute lymphoblastic leukemia and normal (healthy) HUVEC endothelial cells from umbilical vein were used. Both of these cell lines were cultured under optimal conditions for their growth in the appropriate medium in plastic bottles or plastic Petri dishes of various sizes (TPP, BD Biosciences) at 37° C., 5% CO2 and 95% humidity. HUVEC cells were purchased from BD Biosciences. CCRF-CEM cell line was obtained from ATCC/LGC Standards (American Type Cell Collection). Normal human endothelial cells from the umbilical vein are adherent cells, which were grown in plastic Petri dishes coated with collagen I. The culture medium (E-STIMTM; BD Biosciences, cat. […] Then, 5 ml of complete culture media E-STIM™ was added and the cells were centrifuged (180×g, 7 minutes), resuspended and transferred in a desired amount in a new Petri dish with fresh medium. In the experiments cells between passages 3 and 8 (after thawing) were used. Population doubling time of HUVEC cells under the used culture conditions is 38 hours. For testing of the sensitivity of cell lines to studied helquats XTT cytotoxicity/proliferation assay for determination of cell viability was used. This method is based on the ability of metabolically active cells to reduce the yellow tetrazolium salt XTT to orange formazan. The rate of conversion is measured as the increase in absorbance at 492 nm and is proportional to the enzymatic activity of mitochondrial dehydrogenases and thus the number of metabolically active (viable) cells. […] Thus it reflects the effectiveness of the test substance towards the tested cell line. Cells in exponential growth phase were plated into 96-well microtiter plate at a concentration of 3000 cells per well. Each well contained 90 μl of cell suspension. The following day, 10 μl of 10× concentrated test substances was added. […] In addition to the part of the plate containing the mentioned dilutions of test compounds there were always two control columns present, first column with medium alone (i.e. blank) and the second column with the cells in medium without test compounds (control). Into the blank and control wells the same volume of solvent (water) as the volume of the substances was added. After 72 hours of treatment with substances the measurement of viability was performed according to the manufacturer instructions. Briefly, into each well of a 96-well microtiter plate 50 μl of the prepared working solution of XTT (detection reagent) was added and then the microtiter plate was returned to the CO2 incubator. After 2 hours, the absorbance of each well at 492 nm (reference wavelength 690 nm) was measured using a multifunctional microplate reader (Tecan Genios, Austria).

[1] = test system: G-quadruplex in promoter region of the c-myc gene (NHE III1 segment); assay: Dual luciferase analysis with plasmid pGL4.10-myc (luc2) in HGC-27 cells; type: cell-based, human; conditions: for luciferase expression relative to control (control = 100%) / activity at 50 µM: helquat 50 μmol · l^−1, HGC-27, firefly normalized to Renilla, 24 hours after transfection; for inhibition at 50 µM / activity at 50 µM: Homo sapiens; for inhibition at 50 µM: HGC-27, text summary of tab. 5 (50 μmol·l^−1), read-out: inhibition of expression of firefly luciferase as compared to control; for activity at 50 µM: read-out: luciferase expression relative to control (control = 100%)
Text: A dual luciferase analysis was used to determine the degree of stabilization of G-quadruplex in a promoter region of the c-myc gene on cellular level. Stabilization of G-quadruplex is expressed as the ratio of expression of two luciferases (firefly and Renilla) from the co-transfected vectors pGL4.10-myc (luc2) and pRL-TK (Renilla) into a cell line HGC-27 expressing c-myc protein. Expression of the reporter gene (firefly luciferase) from pGL4.10-myc vector is controlled by the c-myc regulatory region of a length of 860 by (in the range from −306 to +554). The inserted sequence contains NHE III1 segment which forms G-quadruplex [Yang, D. et al. (2010) Future Med Chem., 2, 619], and is responsible for as much as 90% of the transcriptional activity of the c-myc gene.
Level of expression of firefly luciferase reporter gene corresponds to promoter activity of c-myc and thus to the degree of stabilization of the G-quadruplex. The signal is normalized to Renilla luciferase expression from pRL-TK vector under the control of a constitutive viral thymidine kinase (HSV-TK) promoter. The amount of Renilla luciferase expression serves as an internal control for normalization of firefly signal on transfection efficiency in the sample. Plasmids pGL4.10-myc (luc2) and pRL-TK were propagated in Escherichia coli (DH5α strain) and purified using the Qiagen Plasmid Mini and Midi kits. Cells were cultured under standard conditions and in exponential growth phase were seeded into a white 96-well microtiter plates. Transfection was carried out using a transfection reagent X-tremeGENE HP DNA in OptiMEM media for two hours. The ratio of reporter and control vector was 1:1 and the ratio of transfection reagent to the total amount of DNA was 1:1. Two hours after transfection helquats were added in a concentration of 50 μmol·l^−1. Quantity of firefly and Renilla luciferases in the samples was determined 24 hours after transfection. Dual luciferase analysis was performed using a commercially available kit (Promega, cat. No. E1960) according to manufacturer's instructions. Luminescence was measured using a luminometer EnSpire Alpha Plate Reader. The data obtained were normalized to the Renilla luciferase signal and then the values were related to control.

[2] = Homo sapiens, CCRF-CEM, 72 hours of treatment, read-out: IC50 CCRF CEM
[3] = Homo sapiens, CCRF-CEM, 72 hours, summary of table 9, read-out: concentrations toxic towards CCRF-CEM cells
[4] = Homo sapiens, HUVEC, 72 hours of treatment, values above 100 μmol·l^−1 obtained by extrapolation, read-out: IC50 HUVEC
[5] = Homo sapiens, HUVEC, 72 hours, summary of table 9, read-out: concentrations non-toxic towards HUVEC cells
[6] = 72 hours of treatment, read-out: IC50 CCRF CEM
[7] = 72 hours of treatment, values above 100 μmol·l^−1 obtained by extrapolation, read-out: IC50 HUVEC

Row | Compound | IC50 (CCRF-CEM; [2]) [µM] | IC50 (CCRF-CEM; [3]) [µM] | IC50 (HUVEC; [4]) [µM] | IC50 (HUVEC; [5]) [µM] | also measured
1 | Cc1c(C)c2c(c3c1CC[n+]1ccc4ccccc4c1-3)-c1cccc(/C=C/c3cccc4c3sc3ccccc34)[n+]1CC2 [VDJA-C13-20, (E)-11-(2-(dibenzo[b,d]thiophen-4-yl)vinyl)-6,7-dimethyl-4,5,8,9-tetrahydroisoquinolino[1,2-a]pyrido[1,2-k][2,9]phenanthroline-3,10-diium trifluoromethanesulfonate] | 11 to 25 | < 25 | ≥ 100 | > 100 | –
2 | Cc1[nH]c2ccccc2c1/C=C/c1cc2ccccc2[n+]2c1-c1c(ccc3c1-c1cccc[n+]1CCC3)CCC2.O=S(=O)([O-])C(F)(F)F.O=S(=O)([O-])C(F)(F)F [MSC-C10-11, 19-((E)-2-(2-methyl-1H-indol-3-yl)vinyl)-6,7,8,11,12,13-hexahydropyrido[1′″,2″:1″,2″]azepino[4″,3″:5′,6′]benzo[1′,2′:3,4]azepino[1,2-a]quinoline-5,14-diium trifluoromethanesulfonate] | – | – | – | – | IC50 (CCRF-CEM; [6]): 11 to 25 µM; luciferase expression relative to control (control = 100%) [1]: 74%; IC50 (HUVEC; [7]): ≥ 100 µM
3 | Cc1c(C)c2c(c3c1CC[n+]1ccc(/C=C/c4ccc5oc6ccccc6c5c4)cc1-3)-c1c3ccccc3cc[n+]1CC2 [MJA-C13-22, (E)-13-(2-(dibenzo[b,d]furan-2-yl)vinyl)-6,7-dimethyl-4,5,8,9-tetrahydroisoquinolino[1,2-a]pyrido[1,2-k][2,9]phenanthroline-3,10-diium trifluoromethanesulfonate] | ≤ 10 | < 25 | ≥ 100 | > 100 | –
4 | 19-((E)-2-(7-methyl-1H-indol-3-yl)vinyl)-6,7,8,11,12,13-hexahydropyrido[1′,2′″:1″,2″]azepino[4″,3″:5′,6′]benzo[1′,2′:3,4]azepino[1,2-a]quinoline-5,14-diium trifluoromethanesulfonate [MSC-C10-31] | – | – | – | – | IC50 (CCRF-CEM; [6]): 11 to 25 µM; IC50 (HUVEC; [7]): ≥ 51 µM
5 | C(=C\c1cc(-c2ccccc2)cs1)/c1cc[n+]2c(c1)-c1c(ccc3c1-c1c4ccccc4cc[n+]1CC3)CC2 [MSB-C11-7, (E)-13-(2-(4-phenylthiophen-2-yl)vinyl)-4,5,8,9-tetrahydroisoquinolino[1,2-a]pyrido[1,2-k][2,9]phenanthroline-3,10-diium trifluoromethanesulfonate] | 11 to 25 | < 25 | ≥ 100 | > 100 | –
6 | C(=C\c1c[nH]c2c1ccc1ccccc12)/c1cc[n+]2c(c1)-c1c(ccc3c1-c1c4ccccc4cc[n+]1CC3)CC2 [MSB-C13-16, (E)-13-(2-(1H-benzo[g]indol-3-yl)vinyl)-4,5,8,9-tetrahydroisoquinolino[1,2-a]pyrido[1,2-k][2,9]phenanthroline-3,10-diium trifluoromethanesulfonate] | 11 to 25 | – | ≥ 51 | – | –
7 | Cc1c(C)c2c(c3c1CC[n+]1ccc(/C=C/c4c[nH]c5ccc(Br)cc45)cc1-3)-c1c3ccccc3cc[n+]1CC2 [MJA-C9-30, (E)-13-(2-(5-bromo-1H-indol-3-yl)vinyl)-6,7-dimethyl-4,5,8,9-tetrahydroisoquinolino[1,2-a]pyrido[1,2-k][2,9]phenanthroline-3,10-diium trifluoromethanesulfonate] | – | – | – | – | inhibition at 50 µM [1]: > 40%; activity at 50 µM [1]: 55%
8 | 2,13-bis((E)-2-(5-bromothiophen-2-yl)vinyl-8,9-dimethyl-6,7,10,11-tetrahydrodipyrido[2,1-a: 1′,2′-k][2,9]phenanthroline-5,12-diium trifluoromethanesulfonate [MJB-C5-3] | – | – | – | – | luciferase expression relative to control (control = 100%) [1]: 65%
9 | C(=C\c1cc(/C=C/c2ccsc2)[n+]2c(c1)-c1c(ccc3c1-c1cccc[n+]1CC3)CC2)/c1ccsc1 [HTA-C5-9, 2,4-bis((E)-2-(thiophen-3-yl)vinyl)-6,7,10,11-tetrahydrodipyrido[2,1-a:1′,2′-k][2,9]phenanthroline-5,12-diium trifluoromethanesulfonate] | – | – | – | – | inhibition at 50 µM [1]: > 10%; activity at 50 µM [1]: 85%
